Experimental data reported in patent publication US20150274703A1, “1H-Indole-3-Carboxamide Derivatives And Use Thereof As P2Y12 Antagonists” (SANOFI, priority 2012, published 2015).
Where a name gives a salt, the structure may show the parent alone. Read-outs that look alike come from different tables or passages of the source.

What was measured:
[1] = tested on: platelet aggregation (rat blood, platelet-rich plasma); assay: Inhibition of platelet aggregation in vitro (rat blood); assay type: cell-based; settings: 0.1 h, Sprague-Dawley rat PRP, area under the curve of absorbance over 6 minutes
Protocol: Inhibition of Platelet Aggregation In Vitro (Rat Blood) Blood is taken from male rats of the Sprague-Dawley strain, weighing 250-300 g. The sample is taken on 3.8% sodium citrate (1 volume for 9 blood volumes) by abdominal aortic puncture after the animal has been anesthetized with sodium pentobarbital. The platelet-rich plasma (PRP) is obtained by centrifugation of the blood at 300 g for 5 minutes, and the platelet aggregation measurements are carried out as described above. The results are calculated using the area under the curve of absorbance measured for 6 minutes, and expressed by the percentage inhibition. The platelet aggregation measurements are carried out at 37° C. in glass tubes (Chrono-Log aggregometer—Kordia). 4 μl of the test compound (solution 100 times more concentrated than the desired final concentration, in DMSO) are mixed with 392 μl of fresh PRP, and incubated for 1 minute with stirring. Then, 4 μl of a solution of ADP at 250 μM are added to the mixture. The aggregation measurements are monitored for 6 to 8 minutes, with constant stirring, by recording the variations in the optical density according to the method of G.V.R. BORN (Born Nature (1962) 194, 927).

[2] = tested on: platelet aggregation (human blood, platelet-rich plasma); assay: Inhibition of platelet aggregation in vitro (human blood); assay type: cell-based; settings: human PRP from healthy volunteers, ADP-induced, size of aggregation as height
Protocol: Inhibition of Platelet Aggregation In Vitro (Human Blood) Blood is taken from healthy volunteers, using 20 ml syringes containing 2 ml of buffered sodium citrate. The blood is transferred into polypropylene tubes and centrifuged for 5 minutes (100 g) at ambient temperature (without using the brake of the centrifuge). The platelet-rich plasma (PRP) supernatant is then removed, diluted, and counted for platelets before being used in the aggregation measurements. The platelet aggregation measurements are carried out at 37° C. in glass tubes (Chrono-Log aggregometer—Kordia). 4 μl of the test compound (solution 100 times more concentrated than the desired final concentration, in DMSO) are mixed with 392 μl of fresh PRP, and incubated for 1 minute with stirring. Then, 4 μl of a solution of ADP at 250 μM are added to the mixture. The aggregation measurements are monitored for 6 to 8 minutes, with constant stirring, by recording the variations in the optical density according to the method of G.V.R. BORN (Born Nature (1962) 194, 927). The results are calculated using the size of the aggregation expressed as height, and expressed by the percentage inhibition.

[3] = tested on: platelet aggregation (rat blood, platelet-rich plasma); assay: Inhibition of platelet aggregation ex vivo (rat blood); assay type: in vivo
Protocol: The platelet aggregation measurements are carried out at 37° C. in glass tubes (Chrono-Log aggregometer—Kordia). 4 μl of the test compound (solution 100 times more concentrated than the desired final concentration, in DMSO) are mixed with 392 μl of fresh PRP, and incubated for 1 minute with stirring. Then, 4 μl of a solution of ADP at 250 μM are added to the mixture. The aggregation measurements are monitored for 6 to 8 minutes, with constant stirring, by recording the variations in the optical density according to the method of G.V.R. BORN (Born Nature (1962) 194, 927). Inhibition of Platelet Aggregation Ex Vivo (Rat Blood) Male rats of the Sprague-Dawley strain, weighing 250-300 g, are used in a proportion of 6 animals per batch. Each test compound is diluted in a glucose solution (5% glucose) containing 5% of cremophor and 3% of glycofurol. […] The sample is taken on 3.8% sodium citrate (1 volume for 9 blood volumes) by abdominal aortic puncture after the animal has been anesthetized with sodium pentobarbital. The platelet-rich plasma (PRP) is obtained by centrifugation of the blood at 300 g for 5 minutes, and the platelet aggregation measurements are carried out as described above. The results are calculated using the area under the curve of absorbance measured for 6 minutes, and expressed by the percentage (%) inhibition.

[4] = oral gavage, t = 2 h after administration, read-out: Inhibition of platelet aggregation ex vivo (rat blood), Gavage (oral)

SMILES: CCCC(=O)c1cnn([C@H]2CC[C@H](NC(=O)c3cn(CC(=O)N4CCN(C)CC4)c4ccc(Cl)cc34)CC2)c1C [Compound 1, 5-Chloro-1-[2-(4-methylpiperazin-1-yl)-2-oxoethyl]-1H-indole-3-carboxylic acid [4-(4-butyryl-5-methyl-pyrazol-1-yl)-cyclohexyl]amide hydrochloride]
- IC50 [1]: 91 nM
- IC50 [2]: 270 nM
- inhibition at 3 mg/kg ([3]; 0.5 h, intravenous infusion, 30 min after administration, read-out: Inhibition of platelet aggregation ex vivo (rat blood), Infusion (Intravenous)): 79 ± 5%
- inhibition at 3 mg/kg [3, 4]: 42.8 ± 10.7%

SMILES: CCCC(=O)c1cnn(C2CCN(NC(=O)c3cn(CC(=O)N4CCN(CCOC(F)(F)F)CC4)c4ccc(Cl)cc34)CC2)c1C [Compound 6, 5-Chloro-1-{2-oxo-2-[4-(2-trifluoromethoxyethyl)piperazin-1-yl]ethyl}-1H-indole-3-carboxylic acid [4-(4-butyryl-5-methylpyrazol-1-yl)piperidin-1-yl]amide hydrochloride]
- IC50 [1]: 46 nM

SMILES: CCCC(=O)c1cnn([C@H]2CC[C@H](NC(=O)c3cn(CC(=O)N4CCN(CCOC)CC4)c4ccc(Cl)cc34)CC2)c1C [Compound 2, 5-Chloro-1-{2-[4-(2-methoxyethyl)piperazin-1-yl]-2-oxoethyl}-1H-indole-3-carboxylic acid [4-(4-butyryl-5-methylpyrazol-1-yl)cyclohexyl]-amide hydrochloride]
- IC50 [1]: 80 nM

SMILES: CCCC(=O)c1cnn(C2CCN(NC(=O)c3cn(CC(=O)N4CCN(C)CC4)c4ccc(Cl)cc34)CC2)c1C [Compound 4, 5 -Chloro-1-[2-(4-methylpiperazin-1-yl)-2-oxoethyl]-1H-indole-3-carboxylic acid [4-(4-butyryl-5-methylpyrazol-1-yl)piperidin-1-yl]amide hydrochloride]
- IC50 [1]: 43 nM
- IC50 [2]: 25 nM
- inhibition at 1 mg/kg ([3]; intravenous infusion, dose 1 mg/kg, t = 2 h after administration): 88 ± 5%
- inhibition at 3 mg/kg [3, 4]: 72 ± 15%

SMILES: CCCC(=O)c1cnn([C@H]2CC[C@H](NC(=O)c3cn(CC(=O)N4CCN(CCC(F)(F)F)CC4)c4ccc(Cl)cc34)CC2)c1C (as salt: hydrochloride) [Compound 3, 5-Chloro-1-{2-oxo-2-[4-(3,3,3-trifluoropropyl)piperazin-1-yl]ethyl}-1H-indole-3-carboxylic acid [4-(4-butyryl-5-methylpyrazol-1-yl)cyclohexyl]amide hydrochloride]
- melting point: 249 °C

SMILES: CCCC(=O)c1cnn(C2CCN(NC(=O)c3cn(CC(=O)N4CCN(CCOC)CC4)c4ccc(Cl)cc34)CC2)c1C [Compound 5, 5-Chloro-1-{2-[4-(2-methoxyethyl)piperazin-1-yl]-2-oxoethyl}-1H-indole-3-carboxylic acid [4-(4-butyryl-5-methylpyrazol-1-yl-piperidin-1-yl]amide hydrochloride]
- IC50 [1]: 17 nM

SMILES: CCCC(=O)c1cnn([C@H]2CC[C@H](NC(=O)c3cn(CC(=O)N4CCN(CCOC)CC4)c4ccc(Cl)cc34)CC2)c1C (as salt: hydrochloride) [Compound 2, 5-Chloro-1-{2-[4-(2-methoxyethyl)piperazin-1-yl]-2-oxoethyl}-1H-indole-3-carboxylic acid [4-(4-butyryl-5-methylpyrazol-1-yl)cyclohexyl]-amide hydrochloride]
- melting point: 263 °C

SMILES: CCCC(=O)c1cnn([C@H]2CC[C@H](NC(=O)c3cn(CC(=O)N4CCN(CCC(F)(F)F)CC4)c4ccc(Cl)cc34)CC2)c1C [Compound 3, 5-Chloro-1-{2-oxo-2-[4-(3,3,3-trifluoropropyl)piperazin-1-yl]ethyl}-1H-indole-3-carboxylic acid [4-(4-butyryl-5-methylpyrazol-1-yl)cyclohexyl]amide hydrochloride]
- IC50 [1]: 294 nM
